The text below walks through data of US12655130B2 (ASSEMBLY BIOSCIENCES, INC., priority 2020, dated 2026).

By EC50 is commonly meant the concentration that produces a half-maximal response.

A value given as a limit tells only on which side of the number the result lay.

The first assay deals with HBV viral load (viral production from HepAD38 cells). The experiment in a line: Activity of test compounds on viral production from HepAD38 cells (viral load by qPCR of HBV core sequence). It counts as cell-based. As to conditions: Hepatitis B virus, HePAD38, 120 h, viral load lowering, 5 days, qPCR of supernatant, read-out: VL HepAD38 EC50 range. The procedure: Assay Measuring Activity of Test Compounds on Viral Production from HepAD38 Cells
HepAD38 cells grown in a T-150 flask (Corning, cat #: 430825) with Growth Medium (DMEM/F12 (1:1) (Hyclone, cat #: SH30023.02), 1× Pen/Strep (Invitrogen, cat #: 15140-122), 10% FBS (Tissue Culture Biologics, cat #: 101), 250 μg/mL G418 (Alfa Aesar, cat #: J62671), 1 μg/mL Tetracycline (Teknova, cat #: T3320)) were detached with 0.25% trypsin-EDTA (Invitrogen, cat #: 25200-056). Tetracycline-free treatment medium (15 mL DMEM/F12 (1:1) 1× Pen/step, with 2% FBS, Tet-system approved (Clontech, cat #: 631106) were then added to mix, transferred into a 50 ml conical tube (Falcon, cat #: 21008-918) and spun at 1300 rpm for 5 min. Pelleted cells were then re-suspended/washed with 50 mL of 1×DPBS (Invitrogen, cat #: 14190-136) 2 times and 50 mL treatment medium twice. HepAD38 cells were then re-suspended with 10 mL of treatment medium, syringed and counted. Wells of 96-well clear bottom TC plate (Corning, cat #: 3904) were seeded at 50,000 cells/well in 180 μL of treatment medium, and 20 μL of either 10% DMSO (Sigma, cat #: D4540) as controls or a 10× solution of test compounds in 10% DMSO in treatment media was added for a final compound concentration starting at 10 μM, and plates were incubated in 5% CO2 incubator at 37° C. for 5 days.
Subsequently viral load production was assayed by quantitative PCR (qPCR) of the HBV core sequence. PCR reaction mixture containing forward primers HBV-f 5′-CTGTGCCTTGGGTGGCITT-3′ (IDT DNA), Reverse primers HBV-r 5′-[…]-3′ (IDT DNA), Fluorescent TaqMan™ Probes HBV-probe 5′-FAM/AGCTCCAAA/ZENMITCTITATAAGGGTCGATGTC/3IABkFQ-3′ (IDT DNA), 10 μL/well of PerfeCTa® qPCR ToughMix® (Quanta Biosciences, Cat #: 95114-05K), and 6 μL/well of DEPC water (Alfa Aesar, cat #: J62087) was prepared. Four μL of supernatant was added to 16 μL of the reaction mixture in a qPCR plate (Applied Biosytems, Cat #: 4309849), sealed with a film (Applied Biosystems, Cat #: 4311971), centrifuged for a few seconds, and subsequently run on an Applied Biosystems VIIA7. The PCR mixture was incubated at 45° C. for 5 min, then 95° C. for 10 min, followed by 40 cycles of 10 seconds at 95° C. and 20 seconds at 60° C. Viral load was quantified against known HBV DNA standards by using ViiA™ 7 Software. Viral load in the supernatant from wells with treated cells were compared against viral load in supernatant from DMSO control wells (3 per plate). Cell viability assay was performed with CellTiter-Glo Luminescent Cell Viability Assay (Promega, cat #: G7573) with modification. Mixed appropriate amount of CellTiter-Glo (CTG) 1×DPBS in a 1:1 ratio, added 100 uL of the mixture to each well followed completely removal of all supernatant in each well without touching cell surface. Incubated the plate at room temperature for 10 min on an orbital shaker, and then read the plate with a plate reader (TECAN M1000 or Envision). EC50 or CC50 values were calculated through curve-fitting of the four-parameter nonlinear-logistic-regression model (GraphPad Prism or Dotmatics). CC50 values were all >10 μM.
On the technique in general: Real-time PCR tracks product formation cycle by cycle.
For `CN(C)S(=O)(=O)c1cc(C2(O)CC3CC(c4ncn(C)c4C(=O)Nc4ccc(F)c(Cl)c4)CC3C2)n(C)n1` (centres unmarked) [Example 100, N-(3-chloro-4-fluorophenyl)-4-(5-(3-(N,N-dimethylsulfamoyl)-1-methyl-1H-pyrazol-5-yl)-5-hydroxyoctahydropentalen-2-yl)-1-methyl-1H-imidazole-5-carboxamide], the EC50 was under 10 nM.

As to `Cc1nc(C2CC3CC(O)(c4ccnn4C(C)C)CC3C2)c(C(=O)Nc2ccc(F)c(Cl)c2)n1C` (centres unmarked) [Example 140, N-(3-Chloro-4-fluorophenyl)-4-(5-hydroxy-5-(1-isopropyl-1H-pyrazol-5-yl)octahydropentalen-2-yl)-1,2-dimethyl-1H-imidazole-5-carboxamide], the 50% effective concentration (EC50) is under 10 nM.

With `CC(C)n1nc(N)c(Cl)c1C1(O)CC2CC(c3ncn(C)c3C(=O)Nc3ccc(F)c(Cl)c3)CC2C1` (centres unmarked) [Example 102, 4-(5-(3-amino-4-chloro-1-isopropyl-1H-pyrazol-5-yl)-5-hydroxyoctahydropentalen-2-yl)-N-(3-chloro-4-fluorophenyl)-1-methyl-1H-imidazole-5-carboxamide], the EC50 is under 10 nM. Same read-out and setting: for `Cn1cnc(C2CC3CC(O)(Cn4ccc(Cl)n4)CC3C2)c1C(=O)Nc1ccc(F)c(Cl)c1` (centres unmarked) [Example 101, 4-(5-((3-Chloro-1H-pyrazol-1-yl)methyl)-5-hydroxyoctahydropentalen-2-yl)-N-(3-chloro-4-fluorophenyl)-1-methyl-1H-imidazole-5-carboxamide] the value was under 10 nM; for `Cn1cnc(C2CC3CC(O)(c4cc(C#N)nn4C)CC3C2)c1C(=O)Nc1ccc(F)c(Cl)c1` (centres unmarked) [Example 57, N-(3-Chloro-4-fluorophenyl)-4-(5-(3-cyano-1-methyl-1H-pyrazol-5-yl)-5-hydroxyoctahydropentalen-2-yl)-1-methyl-1H-imidazole-5-carboxamide], under 10 nM.

With `CC(C)n1cc(Cl)c(C2(O)CC3CC(c4ncn(C)c4C(=O)Nc4ccc(F)c(Cl)c4)CC3C2)n1` (centres unmarked) [Example 154, 4-(5-(4-Chloro-1-isopropyl-1H-pyrazol-3-yl)-5-hydroxyoctahydropentalen-2-yl)-N-(3-chloro-4-fluorophenyl)-1-methyl-1H-imidazole-5-carboxamide], the EC50 is under 10 nM.

On to `Cn1cnc(C2CC3CC(O)(c4cc(C(F)(F)F)nn4C)CC3C2)c1C(=O)Nc1ccc(F)c(Cl)c1` (single isomer, unassigned) [Example 72, N-(3-Chloro-4-fluorophenyl)-4-(5-hydroxy-5-(1-methyl-3-(trifluoromethyl)-1H-pyrazol-5-yl)octahydropentalen-2-yl)-1-methyl-1H-imidazole-5-carboxamide], for which the EC50 was under 10 nM. `Cn1cc(C2(O)CC3CC(c4ncn(C)c4C(=O)Nc4ccc(F)c(Cl)c4)CC3C2)c(C(F)(F)F)n1` (single isomer, unassigned) [Example 114, N-(3-Chloro-4-fluorophenyl)-4-(5-hydroxy-5-(1-methyl-3-(trifluoromethyl)-1H-pyrazol-4-yl)octahydropentalen-2-yl)-1-methyl-1H-imidazole-5-carboxamide]: the EC50 is under 10 nM. On the same count and under the same terms, with `Cc1cc(C2(O)CC3CC(c4ncn(C)c4C(=O)Nc4ccc(F)c(Cl)c4)CC3C2)[nH]n1` (centres unmarked) [Example 144, N-(3-Chloro-4-fluorophenyl)-4-(5-hydroxy-5-(3-methyl-1H-pyrazol-5-yl)octahydropentalen-2-yl)-1-methyl-1H-imidazole-5-carboxamide] the figure was under 10 nM; with `Cn1cnc(C2CC3CC(O)(c4cc(NCC(C)(C)O)nn4C)CC3C2)c1C(=O)Nc1ccc(F)c(Cl)c1` (centres unmarked) [Example 214, N-(3-Chloro-4-fluorophenyl)-4-(5-hydroxy-5-(3-((2-hydroxy-2-methylpropyl)amino)-1-methyl-1H-pyrazol-5-yl)octahydropentalen-2-yl)-1-methyl-1H-imidazole-5-carboxamide], under 10 nM.

For the molecule `Cn1cnc(C2CC3CC(O)(c4ccc(F)cc4)CC3C2)c1C(=O)Nc1ccc(F)c(Cl)c1` (centres unmarked) [Example 7, N-(3-Chloro-4-fluorophenyl)-4-(5-(4-fluorophenyl)-5-hydroxyoctahydropentalen-2-yl)-1-methyl-1H-imidazole-5-carboxamide], the EC50 was under 10 nM. With `Cn1cnc(C2CC3CC(O)(C(F)(F)F)CC3C2)c1C(=O)Nc1ccc(F)c(Cl)c1` (centres unmarked) [Example 12, N-(3-Chloro-4-fluorophenyl)-4-(5-hydroxy-5-(trifluoromethyl)octahydropentalen-2-yl)-1-methyl-1H-imidazole-5-carboxamide], the 50% effective concentration (EC50) was under 10 nM. Same read-out and setting: for `CC(C)n1cc(C(F)(F)F)c(C2(O)CC3CC(c4ncn(C)c4C(=O)Nc4ccc(F)c(Cl)c4)CC3C2)n1` (centres unmarked) [Example 160, N-(3-Chloro-4-fluorophenyl)-4-(5-hydroxy-5-(1-isopropyl-4-(trifluoromethyl)-1H-pyrazol-3-yl)octahydropentalen-2-yl)-1-methyl-1H-imidazole-5-carboxamide] the value was under 10 nM; for `CC(C)n1cc(C2(O)CC3CC(c4ncn(C)c4C(=O)Nc4ccc(F)c(Cl)c4)CC3C2)c(C(F)(F)F)n1` (centres unmarked) [Example 157, N-(3-Chloro-4-fluorophenyl)-4-(5-hydroxy-5-(1-isopropyl-3-(trifluoromethyl)-1H-pyrazol-4-yl)octahydropentalen-2-yl)-1-methyl-1H-imidazole-5-carboxamide], under 10 nM. Still for that read-out and setting: for `CC(C)(C)OC(=O)N1CCn2c(nc(C3CC4CC(O)CC4C3)c2C(=O)Nc2ccc(F)c(Cl)c2)C1` (centres unmarked) [Example 84, tert-Butyl 3-((3-chloro-4-fluorophenyl)carbamoyl)-2-(5-hydroxy-octahydropentalen-2-yl)-5,6-dihydroimidazo[1,2-a]pyrazine-7(8H)-carboxylate] the value was 50 to 500 nM. In the case of `CC(=O)c1cc(C2(O)CC3CC(c4ncn(C)c4C(=O)Nc4ccc(F)c(Cl)c4)CC3C2)n(C)n1` (centres unmarked) [Example 58, 4-(5-(3-Acetyl-1-methyl-1H-pyrazol-5-yl)-5-hydroxyoctahydropentalen-2-yl)-N-(3-chloro-4-fluorophenyl)-1-methyl-1H-imidazole-5-carboxamide], the EC50 was under 10 nM. On the same count and under the same terms, with `Cn1cnc(C2CC3CC(NC4CC4)CC3C2)c1C(=O)Nc1ccc(F)c(Cl)c1` (single isomer, unassigned) [Example 44, 5-[-5-(Cyclopropylamino)-1,2,3,3a,4,5,6,6a-octahydropentalen-2-yl]-N-(3-chloro-4-fluorophenyl)-3-methyl-4-imidazolecarboxamide] the figure was 10 to 50 nM; with `Cn1cnc(C2CC3CC(O)(c4cc(OCC(C)(C)O)nn4C)CC3C2)c1C(=O)Nc1ccc(F)c(Cl)c1` (centres unmarked) [Example 55, N-(3-Chloro-4-fluorophenyl)-4-(5-hydroxy-5-(3-(2-hydroxy-2-methylpropoxy)-1-methyl-1H-pyrazol-5-yl)octahydropentalen-2-yl)-1-methyl-1H-imidazole-5-carboxamide], under 10 nM; with `Cn1cc(C2(O)CC3CC(c4ncn(C)c4C(=O)Nc4ccc(F)c(Cl)c4)CC3C2)c(C#N)n1` (centres unmarked) [Example 180, N-(3-Chloro-4-fluorophenyl)-4-(5-(3-cyano-1-methyl-1H-pyrazol-4-yl)-5-hydroxyoctahydropentalen-2-yl)-1-methyl-1H-imidazole-5-carboxamide], under 10 nM.

The assay is the same for the next values; noted with them: viral load lowering, 5 days, qPCR of supernatant, read-out: VL HepAD38 EC50 range.
In the case of `CC(CO)Oc1cc(C2(O)CC3CC(c4ncn(C)c4C(=O)Nc4ccc(F)c(Cl)c4)CC3C2)n(C)n1` (single isomer, unassigned) [Example 69, N-(3-Chloro-4-fluorophenyl)-4-(5-hydroxy-5-(3-((1-hydroxypropan-2-yl)oxy)-1-methyl-1H-pyrazol-5-yl)octahydropentalen-2-yl)-1-methyl-1H-imidazole-5-carboxamide], the EC50 lay within 10 to 50 nM.
